Test system: Plasmodium berghei
Assay: Antimalarial activity against Plasmodium berghei
Assay type: functional

## CC(C)(C)NCCC(O)c1cc(C(F)(F)F)nc2c(C(F)(F)F)cccc12 (stereo not given)
  log(1/C): 3.47

## CCCCCCN(CCCCCC)CC(O)c1cc(-c2ccc(OC)c(OC)c2)nc2cc(Cl)ccc12 (stereo not given)
  log(1/C): 3.32

## CCCCN(CCCC)CC(O)c1cc(-c2cc(OC)c(OC)c(OC)c2)nc2c1cc(Cl)c1ccccc12 (stereo not given)
  log(1/C): 3.32

## CCCCCCN(CCCCCC)CC(O)c1cc(-c2ccc(Cl)cc2)nc2cc(Cl)ccc12 (stereo not given)
  log(1/C): 3.28

## CCCCN(CCCC)CC(O)c1c(OC)c(-c2ccc(Cl)cc2)nc2c(C)cc(C)cc12 (stereo not given)
  log(1/C): 3.26

## OC(CNC12CC3CC(CC(C3)C1)C2)c1cc(-c2ccc(Cl)cc2)nc2cc(Cl)ccc12 (stereo not given)
  log(1/C): 3.24

## CCCCN(CCCC)CC(O)c1cc(-c2ccc(Cl)c(Cl)c2)nc2cc(OC)ccc12 (stereo not given)
  log(1/C): 3.21

## OC(CC1CCCCN1)c1cc(-c2ccc(Cl)cc2)nc2c1ccc1ccccc12 (stereo not given)
  log(1/C): 3.2

## COc1ccc(-c2cc(C(O)CC3CCCCN3)c3cccc(C)c3n2)cc1 (stereo not given)
  log(1/C): 3.18

## OC(CN1CCCCC1)c1cc(-c2ccccc2)nc2c(Cl)cc(Cl)cc12 (stereo not given)
  log(1/C): 3.17

## CCCCN(CCCC)CC(O)c1cc(-c2cccc(I)c2)nc2c(Cl)cc(Cl)cc12 (stereo not given)
  log(1/C): 3.16

## CCCCCCN(CCCCCC)CC(O)c1cc(-c2ccc(OC)cc2)nc2c(Cl)cc(OC)cc12 (stereo not given)
  log(1/C): 3.15

## CCN(CC)CC(O)c1cc(-c2ccc(Cl)c(Cl)c2)nc2ccc(OC)cc12 (stereo not given)
  log(1/C): 3.15

## CCCCCCCCN(CCCCCCCC)CC(O)c1cc(-c2ccc(CC)c(CC)c2)cc2ccc(C)cc12 (stereo not given)
  log(1/C): 3.15

## CCCCCCCN(CCCCCCC)CC(O)c1cc(-c2ccc(Cl)cc2)nc2c(C(F)(F)F)cccc12 (stereo not given)
  log(1/C): 3.13

## CCN(CC)CC(O)c1cc(-c2ccc(OC)c(OC)c2)nc2ccc(Cl)cc12 (stereo not given)
  log(1/C): 3.12

## CCCCN(CCCC)CC(O)c1cc(-c2ccc(Cl)cc2)nc2ccc(F)cc12 (stereo not given)
  log(1/C): 3.11

## CCCCCCN(CCCCCC)CC(O)c1cc(-c2ccc(Cl)c(Cl)c2)nc2cc(OC)ccc12 (stereo not given)
  log(1/C): 3.1

## Cc1c(Cl)ccc2c(C(O)CN(CCC(C)C)CCC(C)C)cc(-c3ccc(Cl)cc3)nc12 (stereo not given)
  log(1/C): 3.09

## CCCCN(CCCC)CC(O)c1cc(-c2ccc3c(c2)OCO3)nc2cc(Cl)ccc12 (stereo not given)
  log(1/C): 3.09

## CCCCCCN(CCCCCC)CC(O)c1cc(-c2ccc(Cl)cc2)nc2cc(Cl)c(OC)cc12 (stereo not given)
  log(1/C): 3.07

## CCCCN(CCCC)CC(O)c1c(C)c(-c2ccc(C)cc2C)nc2c1cc(Cl)c1ccccc12 (stereo not given)
  log(1/C): 3.05

## OC(CC1CCCCN1)c1cc(-c2ccccc2)nc2c1ccc1ccccc12 (stereo not given)
  log(1/C): 3.05

## CCCCN(CCCC)CC(O)c1cc(-c2ccc(Cl)cc2)nc2cc3c(cc12)OCO3 (stereo not given)
  log(1/C): 2.99

## CCN(CC)CC(O)c1cc(-c2ccc(OC)cc2)nc2cc(Cl)c(OC)cc12 (stereo not given)
  log(1/C): 2.92

## CCCCN(CCCC)CC(O)c1cc(-c2ccccc2)nc2ccc(OC)cc12 (stereo not given)
  log(1/C): 2.89

## CCCCN(CCCC)CC(O)c1cc(-c2ccc(O)cc2)nc2c(Cl)cc(Cl)cc12 (stereo not given)
  log(1/C): 2.66

## COc1ccc(OC)c2c(C(O)CNC34CC5CC(CC(C5)C3)C4)cc(-c3ccc(Cl)cc3)nc12 (stereo not given)
  log(1/C): 2.48

## OC(CC1CCCCN1)c1cc(C(F)(F)F)nc2c(C(F)(F)F)cccc12 (stereo not given)
  log(1/C): 4.41

## OC(CC1CCCCN1)c1cc(C(F)(F)F)nc2cc(C(F)(F)F)ccc12 (stereo not given)
  log(1/C): 4.05

## COc1cc(C(F)(F)F)c2nc(C(F)(F)F)cc(C(O)CC3CCCCN3)c2c1 (stereo not given)
  log(1/C): 3.98

## OC(CC1CCCCN1)c1cc(C(F)(F)F)nc2ccc(C(F)(F)F)cc12 (stereo not given)
  log(1/C): 3.65

## FC(F)(F)c1cc(C2CCCCN2)c2ccc3ccccc3c2n1.OC(CC1CCCCN1)c1cc(C(F)(F)F)nc2c1ccc1ccccc12 (stereo not given)
  log(1/C): 3.44

## OC(CC1CCCCN1)c1cc(C(F)(F)F)nc2c1cc(Cl)c1ccccc12 (stereo not given)
  log(1/C): 3.43

## OC(CCC1CCCCN1)c1cc(C(F)(F)F)nc2c(C(F)(F)F)cccc12 (stereo not given)
  log(1/C): 3.36

## CCCCNC(C)(C)CC(O)c1cc(C(F)(F)F)nc2c(C(F)(F)F)cccc12 (stereo not given)
  log(1/C): 3.27

## CCCCN(CCCC)CCC(O)c1cc(C(F)(F)F)nc2ccc(C(F)(F)F)cc12 (stereo not given)
  log(1/C): 3.31

## COc1ccc2nc(C(F)(F)F)cc(C(O)CC3CCCCN3)c2c1 (stereo not given)
  log(1/C): 2.97

## Cc1cccc2c(C(O)CC3CCCCN3)cc(C(F)(F)F)nc12 (stereo not given)
  log(1/C): 2.93

## Cc1cc(C)c2nc(C(F)(F)F)cc(C(O)CC3CCCCN3)c2c1 (stereo not given)
  log(1/C): 2.93

## CCCNCC(O)c1cc(C(F)(F)F)nc2c(C(F)(F)F)cccc12 (stereo not given)
  log(1/C): 2.92

## Cc1ccc2nc(C(F)(F)F)cc(C(O)CC3CCCCN3)c2c1 (stereo not given)
  log(1/C): 2.84

## CCCCN(CCCC)CC(O)c1cc(C(=O)c2ccc(C(F)(F)F)cc2)nc2c(Cl)cc(Cl)cc12 (stereo not given)
  log(1/C): 4.86

## CCCCN(CCCC)CC(O)c1cc(C(=O)c2cc(Cl)cc(Cl)c2)nc2c(C(F)(F)F)cc(Cl)cc12 (stereo not given)
  log(1/C): 4.82

## CCCCN(CCCC)CC(O)c1cc(C(=O)c2cc(C(F)(F)F)cc(C(F)(F)F)c2)nc2c(Cl)cc(Cl)cc12 (stereo not given)
  log(1/C): 4.64

## CCCCN(CCCC)CC(O)c1cc(C(=O)c2cccc(C(F)(F)F)c2)nc2c(C(F)(F)F)cc(Cl)cc12 (stereo not given)
  log(1/C): 4.52

## CCCCN(CCCC)CC(O)c1cc(C(=O)c2cccc(Cl)c2Cl)nc2c(C(F)(F)F)cc(Cl)cc12 (stereo not given)
  log(1/C): 4.52

## CCCCN(CCCC)CC(O)c1cc(C(=O)c2cccc(Cl)c2)nc2c(Cl)cc(Cl)cc12 (stereo not given)
  log(1/C): 4.48

## CCCCN(CCCC)CC(O)c1cc(C(=O)c2cccc(Cl)c2)nc2c(C(F)(F)F)cc(Cl)cc12 (stereo not given)
  log(1/C): 3.98

## CCCCN(CCCC)CC(O)c1cc(C(=O)c2ccccc2)nc2c(Cl)cc(Cl)cc12 (stereo not given)
  log(1/C): 3.03

## OC(CC1CCCCN1)c1cc(Oc2ccc(Cl)cc2)nc2c(Cl)cc(Cl)cc12 (stereo not given)
  log(1/C): 4.16

## OC(CC1CCCCN1)c1cc(Oc2ccc(Cl)c(Cl)c2)nc2c(Cl)cc(Cl)cc12 (stereo not given)
  log(1/C): 4.1

## OC(CC1CCCCN1)c1cc(Oc2ccc(Cl)cc2)nc2ccc(Cl)cc12 (stereo not given)
  log(1/C): 3.23

## Cc1ccc2nc(Nc3ccc(Cl)cc3)cc(C(O)CC3CCCCN3)c2c1 (stereo not given)
  log(1/C): 2.87

## CCCCN(CCCC)CC(O)c1cc(C(C)(C)C)nc2c1cc(Cl)c1ccccc12 (stereo not given)
  log(1/C): 2.98

## CCCCN(CCCC)CC(O)c1cc(C(C)(C)C)nc2ccc(Cl)cc12 (stereo not given)
  log(1/C): 2.91

## CCCCN(CCCC)CC(O)c1cc(-c2cccs2)nc2cccc(Br)c12 (stereo not given)
  log(1/C): 3.06

## OC(CN1CCCCCC1)c1cc(-c2cccs2)nc2cccc(Br)c12 (stereo not given)
  log(1/C): 2.89

## CCCCN(CCCC)CC(O)c1cc(C23CC4CC(CC(C4)C2)C3)nc2c(C(F)(F)F)cccc12 (stereo not given)
  log(1/C): 3.59

## CCCCN(CCCC)CC(O)c1cc(C23CC4CC(CC(C4)C2)C3)nc2c(Cl)cc(Cl)cc12 (stereo not given)
  log(1/C): 3.29

## CCCCN(CCCC)CC(O)C1CC(c2ccc(Cl)c(Cl)c2)=Nc2c(Cl)cc(Cl)cc21 (stereo not given)
  log(1/C): 3.6

## CCCCN(CCCC)CC(O)c1nc(-c2ccc(Cl)cc2)nc2ccccc12 (stereo not given)
  log(1/C): 2.85

## CCN(CC)CC(O)c1ccnc2cc(Cl)ccc12 (stereo not given)
  log(1/C): 3.03

## CCCCN(CCCC)CC(O)c1c(C)c(-c2ccc(Cl)cc2Cl)nc2c(Cl)cc(Cl)cc12 (stereo not given)
  log(1/C): 3.15

## Cc1ccc(-c2cc(C(O)CC3CCCCN3)c3cc(C)cc(C)c3n2)cc1 (stereo not given)
  log(1/C): 3.11

## CCCCN(CCCC)CC(O)c1c(C)c(-c2ccc(Cl)cc2)nc2c(Cl)cc(Cl)cc12 (stereo not given)
  log(1/C): 3.06

## COc1ccc(-c2cc(C(O)CC3CCCCN3)c3cc(C)ccc3n2)cc1 (stereo not given)
  log(1/C): 3

## CCOCCN(CCOCC)CC(O)c1cc(-c2ccc(Cl)c(Cl)c2)nc2ccc(OC)cc12 (stereo not given)
  log(1/C): 2.83

## CCCCCCCCN(CCCCCCCC)CC(O)c1cc(-c2ccccc2)nc2cc(Cl)ccc12 (stereo not given)
  log(1/C): 2.82

## CCN(CC)CC(O)c1cc(-c2ccc(OC)c(OC)c2)nc2cc(Cl)ccc12 (stereo not given)
  log(1/C): 2.81

## CCCCCCN(CCCCCC)CC(O)c1cc(-c2ccc(Cl)cc2)nc2cc(OC)c(Cl)cc12 (stereo not given)
  log(1/C): 2.8

## CCCCN(CCCC)CC(O)c1cc(-c2ccc(Cl)cc2)nc2cc(OC)c(Cl)cc12 (stereo not given)
  log(1/C): 2.76

## OC(CC1CCCCN1)c1cc(-c2ccccc2)nc2cc(Cl)ccc12 (stereo not given)
  log(1/C): 2.72

## CCCCN(CCCC)CC(O)c1cc(-c2ccc(C)cc2)nc2c(C)cc(C)cc12 (stereo not given)
  log(1/C): 2.72

## C=C[C@H]1CN2CC[C@H]1C[C@H]2[C@H](O)c1cc(-c2ccccc2)nc2ccc(OC)cc12
  log(1/C): 2.72

## CN1CCCCC1CC(O)c1cc(-c2ccccc2)nc2ccc(Cl)cc12 (stereo not given)
  log(1/C): 2.7

## OC(CC1CCCCN1)c1cc(-c2ccccc2)nc2c(Cl)cccc12 (stereo not given)
  log(1/C): 2.69

## OC(CN1CCN(c2ccccc2)CC1)c1cc(-c2ccccc2)nc2c(Cl)cc(Cl)cc12 (stereo not given)
  log(1/C): 2.66

## CN1CCN(CC(O)c2cc(-c3ccc(Cl)cc3)nc3cc(Cl)ccc23)CC1 (stereo not given)
  log(1/C): 2.66

## OC(CNC1CCCC1)c1cc(-c2ccccc2)nc2c(Cl)cc(Cl)cc12 (stereo not given)
  log(1/C): 2.54

## CCCCN(CCCC)CC(O)c1cc(-c2ccccc2)nc2ccccc12 (stereo not given)
  log(1/C): 2.54

## CCN(CC)CC(O)c1cc(-c2ccc(C)cc2)nc2c(C)cc(C)cc12 (stereo not given)
  log(1/C): 2.8

## CCCN(CCC)CC(O)c1cc(C(F)(F)F)nc2c(C(F)(F)F)cccc12 (stereo not given)
  log(1/C): 2.88

## CCCCN(CCCC)CC(O)c1cc(C(F)(F)F)nc2c(C(F)(F)F)cccc12 (stereo not given)
  log(1/C): 3.6

## CCCCNCC(O)c1cc(C(F)(F)F)nc2c(C(F)(F)F)cccc12 (stereo not given)
  log(1/C): 3.65

From ChEMBL document CHEMBL3227967, “Quantitative structure-activity relationships in 1-aryl-2-(alkylamino)ethanol antimalarials” (J Med Chem, 1979)
